How the values were obtained:
HS patients = assay: Phase 2 clinical study (NCT03852472): safety and tolerability; assay type: in vivo, human
Description: The study was a randomized, double-blind, placebo-controlled, three group Phase 2 trial in 435 subjects with moderate to severe hidradenitis suppurativa (Hurley stage II or III). Subjects were randomized 1:1:1 to a treatment of 10 mg avacopan twice daily, 30 mg avacopan twice daily or a placebo twice daily for 12 weeks. Following the 12 weeks double-blind treatment period, subjects on placebo were re-randomized 1:1 to receive 10 mg or 30 mg avacopan twice daily for additional 24 weeks. Subjects treated with avacopan continued to receive the same dose (either 10 mg or 30 mg twice daily) for additional 24 weeks.
Subjects were on study treatment for 36 weeks and were followed for 8 weeks for assessment of safety and efficacy. The primary efficacy analysis was at 12 weeks.

[1] = tested on: subjects with moderate to severe hidradenitis suppurativa (Hurley stage II or III); assay: Phase 2 clinical study (NCT03852472, AURORA): HiSCR, AN count, DF count and IHS4 at Week 12; assay type: in vivo, human; settings: for HiSCR response rate % (n/N): biomarker sample subset of AURORA (n = 68 HS patients), placebo 25
Description: The study was a randomized, double-blind, placebo-controlled, three group Phase 2 trial in 435 subjects with moderate to severe hidradenitis suppurativa (Hurley stage II or III). Subjects were randomized 1:1:1 to a treatment of 10 mg avacopan twice daily, 30 mg avacopan twice daily or a placebo twice daily for 12 weeks. Following the 12 weeks double-blind treatment period, subjects on placebo were re-randomized 1:1 to receive 10 mg or 30 mg avacopan twice daily for additional 24 weeks. Subjects treated with avacopan continued to receive the same dose (either 10 mg or 30 mg twice daily) for additional 24 weeks. Subjects were on study treatment for 36 weeks and were followed for 8 weeks for assessment of safety and efficacy. The primary efficacy analysis was at 12 weeks. The primary efficacy endpoint assessed by the proportion of subjects achieving Hidradenitis Suppurativa Clinical Response (HiSCR) at Week 12. • At least 18 years of age • Clinical diagnosis of HS (Hurley Stage II or III), confirmed by a dermatologist, for at least 6 months prior to Screening • HS lesions are present in at least 2 distinct anatomic areas • Inadequate or loss of response to a systemic course of antibiotics typically of at least 90 days • Must have at least 5 inflammatory nodules or abscesses at screening • Use adequate birth control for subject and partners of child bearing potential • Willing and able to give written Informed Consent • Pregnant or breast-feeding • Any other skin disease that may interfere with the assessment of HS • Rapidly progressive, expanding HS within 30 days prior to screening • More than 20 draining fistulae at screening • Any anti-TNF-α treatment for HS or for other conditions prior to Day 1 visit will be prohibited. Exception: Subjects who were previously treated with an anti-TNF-α drug and discontinued treatment >12 weeks prior to Day 1 visit are allowed for enrollment • Systemic antibiotics are generally excluded • Topical antibiotics use within 14 days prior to Day 1 is excluded • Have started a topical prescription medicine for HS within 14 days prior to screening • A systemic medicine for HS, including biologics and other systemic therapies • Have received within 14 days prior to Day 1 visit or is expected to require oral or transdermal opioid analgesics (except for tramadol) for any reason The proportion of subjects achieving HiSCR at Week 12 is calculated as those subjects having at least a 50% reduction from baseline in abscess and inflammatory nodule (AN) count, with no increase in abscess count and no increase in draining fistula count number at Week 12 divided by the total number of subjects with non-missing value in each treatment group. p-values are obtained from a Cochran-Mantel-Haenszel (CMH) test stratified by stratification factors Hurley Stage (Stage II vs. III), and anti-TNF drug use (Treatment naïve vs. Previous treatment). Plasma samples were collected at baseline prior to the start of treatment from 68 enrolled HS patients in phase II AURORA study (NCT03852472) and from 20 independent age and gender matched healthy controls.

Cc1ccc(NC(=O)[C@H]2CCCN(C(=O)c3c(C)cccc3F)[C@H]2c2ccc(NC3CCCC3)cc2)cc1C(F)(F)F [avacopan]
safety and tolerability (HS patients): safe and well tolerated | % Difference (avacopan − placebo) in HiSCR ([1]; Hurley Stage II, Week 12, avacopan 10 mg BID): −13.9% | % Adjusted difference (avacopan − placebo) in HiSCR ([1]; Hurley Stage II, Week 12, avacopan 10 mg BID, 95% CI (−26.8, −0.2)): −13.8% | HiSCR Responder Rate, n/N ([1]; Hurley Stage II, Week 12, avacopan 10 mg BID, placebo 35.3, p=0.0473): 21.4% | HiSCR Responder Rate, n/N ([1]; Hurley Stage II, Week 12, avacopan 10 mg BID, placebo 35.3, p=0.0473, listed as Avacopan): 18/84 (21.4) % | % Difference (avacopan − placebo) in HiSCR ([1]; Hurley Stage II, Week 12, avacopan 30 mg BID): −4.3% | % Adjusted difference (avacopan − placebo) in HiSCR ([1]; Hurley Stage II, Week 12, avacopan 30 mg BID, 95% CI (−18.1, 9.6)): −4.3% | HiSCR Responder Rate, n/N ([1]; Hurley Stage II, Week 12, avacopan 30 mg BID, placebo 35.3, p=0.5469): 27/87 (31.0) % | HiSCR Responder Rate, n/N ([1]; Hurley Stage III (ITT1), Week 12, avacopan 10 mg BID, placebo 22.2): 24.0% | HiSCR Responder Rate, n/N ([1]; Hurley Stage III (ITT1), Week 12, avacopan 10 mg BID, placebo 22.2, listed as Avacopan): 12/50 (24) % | HiSCR Responder Rate, n/N ([1]; Hurley Stage III (ITT1), Week 12, avacopan 30 mg BID, placebo 22.2, p=0.0349 (text)): 42.6% | HiSCR Responder Rate, n/N ([1]; Hurley Stage III (ITT1), Week 12, avacopan 30 mg BID, placebo 22.2, p=0.0349 (text), listed as Avacopan): 20/47 (42.6) % | IHS4, AN, draining fistula and abscess count ([1]; Hurley Stage III patients, week 12): consistent reduction | % Difference (avacopan − placebo) in HiSCR ([1]; Hurley Stage III, Week 12, avacopan 10 mg BID): 1.8% | % Adjusted difference (avacopan − placebo) in HiSCR ([1]; Hurley Stage III, Week 12, avacopan 10 mg BID, 95% CI (−15.3, 18.3)): 1.8% | % Difference (avacopan − placebo) in HiSCR ([1]; Hurley Stage III, Week 12, avacopan 30 mg BID): 20.3% | % Adjusted difference (avacopan − placebo) in HiSCR ([1]; Hurley Stage III, Week 12, avacopan 30 mg BID, 95% CI (1.6, 37.9)): 20.8% | percentage reduction in IHS4 Score ([1]; Hurley Stage III, Week 12, avacopan 30 mg BID, placebo 20.7%): 36.9% | percentage reduction in AN count ([1]; Hurley Stage III, Week 12, avacopan 30 mg BID, placebo 23.7%): 40.8% | percentage reduction in DF count ([1]; Hurley Stage III, Week 12, avacopan 30 mg BID, placebo 24.0%): 45.2% | HiSCR response rate % (n/N) ([1]; avacopan 10 mg): 29.2 (7/24) % | HiSCR response rate % (n/N) ([1]; avacopan 30 mg): 54.2 (13/24) % | improvement in HiSCR vs. placebo ([1]; pre-specified Hurley Stage III (severe HS) patients at 12 weeks): statistically significant dose-dependent improvement

Source: patent publication US20240310388A1, “DIAGNOSTIC METHODS FOR HIDRADENITIS SUPPURATIVA” (AMGEN INC., priority 2023, published 2024)
